This is an account of results in US4200646A, “Method of controlling the growth of microorganisms using nitroalkyl thiocyanates” (International Minerals & Chemical Corporation, priority 1979, dated 1980).

Values after ≈ are worked out from the molar mass of the structure shown. “Also recorded” adds a separate entry of the source. Where two headings read alike, the source gives them in different places.

One series has as its system Staphyloccus aureus. In words: Tube dilution method, minimum inhibitory concentration. The format is cell-based.
A further series deals with Streptococcus fecalis. The description is as above. The format is cell-based.
In series [1] the test system is Streptococcus hemolyticus. The description is as above. The class given is cell-based. The following applies: Streptococcus pyogenes.
The next series concerns Escherichia coli. The series is described as above. The format is cell-based.
Series [2] has as its system Pasteurella pseudotuberculosis. The series is described as follows: microbe, parasite or virus in culture. The class given is cell-based. The following applies: Yersinia pseudotuberculosis, pH 7.3, read-out: Inhibitory Concn (minimum inhibitory concentration).
The next series relates to Pseudomonas aeruginosa. The series is described as follows: Tube dilution method, minimum inhibitory concentration. The format is cell-based.
The test system of a further series is Shigella dysenteriae. The description is as above. The following applies: pH 7.3, read-out: Inhibitory Concn (minimum inhibitory concentration). The class given is cell-based.
For the next series, the system named is Mycobacterium ranae. The description is as above. The class given is cell-based.
Another series has as its system Aspergillus niger. The series is described as above. The format is cell-based.
In a further series the test system is Candida albicans. The description is as above. The format is cell-based.
The test system of the next series is Penicillium sp. The series is described as above. The format is cell-based.
Another series has as its system Aspergillus fumigatus. Described as above. The format is cell-based.
Another series relates to bacteria and fungi. The series is described as follows: Antimicrobial activity against bacteria and fungi. The format is cell-based.
The next series deals with microorganisms. In words: Control of growth of microorganisms in metal working fluids. The following applies: 500-1000 ppm or more.
Series [3] is described as follows: LD50 in mice by oral administration. Particulars: mouse, in vivo. As to the method: The LD50 in mice by oral administration was determined to be 500 mg/kg.
The subject of a further series is microbial contamination. The series is described as follows: Microbial contamination of cutting oil emulsion in use. The following applies: emulsion with P-2216 0.1, light mineral oil 20, water 76.9, emulsifying agent 3 parts. As to the method:
A cutting oil emulsion is prepared according to the following formula: […]
Light mineral oil 20 parts

Setting [4] is: trypticase soya broth pH 7.3, range between highest concentration permitting growth and lowest preventing growth, read-out: Inhibitory Concn (minimum inhibitory concentration).
[5] abbreviates: Sabouraud broth pH 5.6, range between highest concentration permitting growth and lowest preventing growth, read-out: Inhibitory Concn (minimum inhibitory concentration).
Where [6] appears, read: pH 7.3, read-out: Inhibitory Concn (minimum inhibitory concentration).
The mark [7] stands for this setting: pH 5.6, read-out: Inhibitory Concn (minimum inhibitory concentration).

As a reminder, the LD50 is the dose expected to kill half of the subjects tested. In the case of `N#CSC1([N+](=O)[O-])CCCCC1` [Example P-2217, 1-nitrocyclohexyl thiocyanate], the MIC in the series with Staphyloccus aureus (Staphyloccus aureus, trypticase soya broth pH 7.3, range between highest concentration permitting growth and lowest preventing growth, read-out: Inhibitory Concn (minimum inhibitory concentration)) is 1 to 10 µg/mL (≈ 5.37 to 53.7 µM); with Streptococcus fecalis (Streptococcus fecalis, trypticase soya broth pH 7.3, range between highest concentration permitting growth and lowest preventing growth, read-out: Inhibitory Concn (minimum inhibitory concentration)) it was 50 to 100 µg/mL (≈ 268 to 537 µM); in [1] (Streptococcus hemolyticus, trypticase soya broth pH 7.3, range between highest concentration permitting growth and lowest preventing growth, read-out: Inhibitory Concn (minimum inhibitory concentration)), 50 to 100 µg/mL (≈ 268 to 537 µM); in the series with Escherichia coli (setting [4]), 10 to 50 µg/mL (≈ 53.7 to 268 µM); in series [2], 10 to 50 µg/mL (≈ 53.7 to 268 µM); with Pseudomonas aeruginosa (setting [4]), 10 to 50 µg/mL (≈ 53.7 to 268 µM). The MIC in the series on Shigella dysenteriae lay within 50 to 100 µg/mL (≈ 268 to 537 µM); in the series on Mycobacterium ranae (Mycobacterium ranae, trypticase soya broth pH 7.3, range between highest concentration permitting growth and lowest preventing growth, read-out: Inhibitory Concn (minimum inhibitory concentration)), 1 to 10 µg/mL (≈ 5.37 to 53.7 µM); in the series on Aspergillus niger (setting [5]), 10 to 50 µg/mL (≈ 53.7 to 268 µM); in the series with Candida albicans (setting [5]), 10 to 50 µg/mL (≈ 53.7 to 268 µM); with Penicillium sp. (Penicillium sp., Sabouraud broth pH 5.6, range between highest concentration permitting growth and lowest preventing growth, read-out: Inhibitory Concn (minimum inhibitory concentration)), 10 to 50 µg/mL (≈ 53.7 to 268 µM); in the series with Aspergillus fumigatus (setting [5]), 1 to 10 µg/mL (≈ 5.37 to 53.7 µM). Further, the “antimicrobial activity (in words)” value with bacteria and fungi is “effective against both bacteria and fungi; also recorded: effective against a wide spectrum of bacteria and fungi”. Also, the “control of growth of microorganisms in metal working fluids” value (“control of growth of microorganisms” for short) in the series on microorganisms was “controls the growth of microorganisms for a prolonged period”. For the same compound, the 50% lethal dose (LD50) in [3] (oral, species not restated in Example 5 (mice in Example 1), read-out: oral LD50) turned out to be 150 mg/kg.

As for `CCC(SC#N)[N+](=O)[O-]` (centres unmarked) [1-nitropropyl thiocyanate], the “antimicrobial activity (in words)” value in the series with bacteria and fungi was “effective against a wide spectrum of bacteria and fungi”. In addition, the “control of growth of microorganisms” value in the series with microorganisms was “controls the growth of microorganisms for a prolonged period”.

For `N#CSC[N+](=O)[O-]` [nitromethyl thiocyanate], the “antimicrobial activity (in words)” value in the series with bacteria and fungi is “effective against a wide spectrum of bacteria and fungi”. Besides, the “control of growth of microorganisms” value in the series on microorganisms is “controls the growth of microorganisms for a prolonged period”.

On to `CC(C)(SC#N)[N+](=O)[O-]` [Example P-2216, 1-methyl-1-nitroethyl thiocyanate], for which the MIC lay within 1 to 10 µg/mL (≈ 6.84 to 68.4 µM) in the series on Staphyloccus aureus (setting [6]); 50 to 100 µg/mL (≈ 342 to 684 µM) in the series on Streptococcus fecalis (Streptococcus, pH 7.3, read-out: Inhibitory Concn (minimum inhibitory concentration)); 50 to 100 µg/mL (≈ 342 to 684 µM) in series [1] (setting [6]); 10 to 50 µg/mL (≈ 68.4 to 342 µM) in the series on Escherichia coli (setting [6]); 1 to 10 µg/mL (≈ 6.84 to 68.4 µM) in series [2]; 10 to 50 µg/mL (≈ 68.4 to 342 µM) in the series with Pseudomonas aeruginosa (setting [6]). The MIC with Shigella dysenteriae was 10 to 50 µg/mL (≈ 68.4 to 342 µM); with Mycobacterium ranae (Mycobacterium, pH 7.3, read-out: Inhibitory Concn (minimum inhibitory concentration)), 1 to 10 µg/mL (≈ 6.84 to 68.4 µM); with Aspergillus niger (setting [7]) it was 10 to 50 µg/mL (≈ 68.4 to 342 µM); with Candida albicans (setting [7]), 1 to 10 µg/mL (≈ 6.84 to 68.4 µM); in the series with Penicillium sp. (Penicillium, pH 5.6, read-out: Inhibitory Concn (minimum inhibitory concentration)) it was 10 to 50 µg/mL (≈ 68.4 to 342 µM); in the series on Aspergillus fumigatus (setting [7]) it was 1 to 10 µg/mL (≈ 6.84 to 68.4 µM). For the same compound, in the series on microbial contamination, the “freedom from microbial contamination when used as a cutting oil” value is “remains free from microbial contamination for a long period of time”. The LD50 in series [3] (mice, oral administration, read-out: LD50) stood at 500 mg/kg.

Consider `CC(SC#N)[N+](=O)[O-]` (centres unmarked) [1-nitroethyl thiocyanate], for which the “antimicrobial activity (in words)” value in the series with bacteria and fungi was “effective against a wide spectrum of bacteria and fungi”. Moreover, the “control of growth of microorganisms” value with microorganisms is given as “controls the growth of microorganisms for a prolonged period”.
